Assay type in all cases: biochemical, Ochrobactrum anthropi
Assay [1] concerns purine nucleosidase. The experiment in a line: Effect of metal ions on purine nucleosidase. To be noted: for Inhibition or activation of purine nucleosidase by metal ions (in words): 1 mM metal ion; for Relative activity: 1 mM metal, pH 4.5, 30° C., 40 minutes, not added = 100.0. The method, then: (§1) The reaction solution (200 μl) contained 0.5 mM of adenosine or inosine or 0.25 mM of guanosine as the substrate, 50 mM of acetate buffer at pH 4.5 and a sufficient amount of enzyme. The reaction was initiated by addition of the enzyme, and the reaction was conducted at 50° C. for 5 minutes. The reaction was terminated by addition of 20 μl of 15% perchloric acid, and after centrifugation (35,000 rpm, 10 min) the supernatant was analyzed qualitatively by thin-layer chromatography (TLC) and quantitatively by high-performance liquid chromatography. The analysis methods were as follows.
Various metal ions were added to the activity measuring solution in an amount of 1 mM to measure the activity. The reaction was conducted at pH 4.5, 30° C. for 40 minutes.

The subject of assay [2] is purine nucleosidase. The experiment in a line: Substrate specificity of purine nucleosidase by thin-layer chromatography. Also on record: key to Relative activity: -: not reacted; +: <10%; ++: <31%; +++: <50%; ++++: >50%. The following applies: thin-layer chromatography. The protocol: as §1
(1) Thin-layer chromatography
Plate: Kieselgel 60F254 (Merk)
Developing solution: n-butanol/isopropanol/H2 O/NH4 OH=1:7:2:0.2 (v/v/v/v) (for adenosine and guanosine substrates), n-butanol/acetic acid/H2 O=5:1:1 (v/v/v) (for inosine substrate)
The substrate specificity of the purine nucleosidase was determined by thin-layer chromatography (TLC).
The specific activity was measured under conditions of 50° C., pH 4.5. The Km and Vmax were measured under conditions of 30° C., pH 4.5. The relative activity was expressed according to the following measurement method.

In assay [3] the test system is purine nucleosidase. Briefly: Effect of inhibitors on purine nucleosidase. To be noted: 1 mM inhibitor; for Relative activity: pH 4.5, 30° C., 20 minutes, not added = 100.0. The protocol: as §1
The activity was measured after adding 1 mM of different inhibitors to the activity measurement solution. The reaction was conducted at pH 4.5, 30° C. for 20 minutes.

Entries after “also recorded” stand apart in the source; their conditions may differ.

`O=S(=O)([O-])[O-].[Zn+2]` [ZnSO4]: the “Inhibition or activation of purine nucleosidase by metal ions (in words)” value (shortened to “Inhibition or activation”) in assay [1] (listed as Zn^2+) is listed as “Inhibition occurred; also recorded: Inhibited”. Also, the Relative activity in assay [1] is given as 74.9%.
Consider `O=c1ccn([C@@H]2O[C@H](COP(=O)(O)O)[C@@H](O)[C@H]2O)c(=O)[nH]1` [5'-UMP], for which the Relative activity entry in assay [2] is reported as “-”.
For the molecule `O=c1[nH]cc([C@@H]2O[C@H](CO)[C@@H](O)[C@H]2O)c(=O)[nH]1` [pseudouridine], in assay [2], the Relative activity entry is “-”.
In the case of `NNC(N)=O` [semicarbazide], the Relative activity in assay [3] was 103.4%.
As for `[Cl][Fe]([Cl])[Cl]` [FeCl3], the Relative activity in assay [1] is 100.0%.
For `O=C(O)c1cc(SSc2ccc([N+](=O)[O-])c(C(=O)O)c2)ccc1[N+](=O)[O-]` [DTNB, 5,5'-dithiobis(2-nitrobenzoic acid)], in assay [3], the “Inhibition of purine nucleosidase (in words)” value was “Inhibition occurred; also recorded: inhibited” and the Relative activity was determined as 37.4%.
As for `O=c1ccn([C@H]2C[C@H](O)[C@@H](CO)O2)c(=O)[nH]1` [2'-deoxyuridine], the Relative activity result in assay [2] was “-”.
With `[Cl][Mn][Cl]` [MnCl2], the “Inhibition or activation” value in assay [1] (listed as Mn^2+) was “Inhibition occurred; also recorded: Inhibited”. For the same molecule, the Relative activity in assay [1] is reported as 65.5%.
For `[Cl-].[K+]` [KCl], the Relative activity in assay [1] is 100.9%.
As for `O=[As]([O-])([O-])O.[Na+].[Na+]` [sodium arsenate], the Relative activity in assay [3] is on record as 69.4%.
`NC(=O)c1ccc[n+]([C@@H]2O[C@H](COP(=O)([O-])O)[C@@H](O)[C@H]2O)c1` [β-NMN]: the Relative activity result in assay [2] was “-”.
Still for that read-out and setting: the same measure for `Nc1ncnc2c1ncn2[C@@H]1O[C@H](CO)[C@@H](OP(=O)(O)O)[C@H]1O` [3'-AMP, 3'-adenosine monophosphate]: “++ (<31%)”.
As to `[N-]=[N+]=[N-]` [sodium azide], in assay [3], the “Inhibition of purine nucleosidase (in words)” value was “Inhibition occurred; also recorded: inhibited” and the Relative activity came to 72.9%.
Consider 2'-chloroadenosine, for which, in assay [2], the Relative activity entry is given as “++++ (>50%)”.
For `c1cnc2c(c1)ccc1cccnc12` [o-phenanthroline], the Relative activity in assay [3] stood at 78.3%.
As for `[Ca+2].[Cl-].[Cl-]` [CaCl2], the Relative activity in assay [1] was determined as 101.7%.
Regarding `Oc1cccc2cccnc12` [8-hydroxyquinoline], the Relative activity in assay [3] was 8.5%.
For `[F-].[Na+]` [sodium fluoride], in assay [3], the “Inhibition of purine nucleosidase (in words)” value is on record as “Inhibition occurred; also recorded: inhibited” and the Relative activity was determined as 62.2%.
On to `NNc1ccccc1` [phenylhydrazine], for which the Relative activity in assay [3] is listed as 100.4%.
In the case of `[Cl][Al]([Cl])[Cl]` [AlCl3], the Relative activity in assay [1] came out at 73.6%.
Take `[Cl-].[Cs+]` [CsCl]: the Relative activity in assay [1] turned out to be 106.9%.
Consider `O=S(=O)([O-])[O-].[Ag+].[Ag+]` [Ag2 SO4], for which the “Inhibition or activation” value in assay [1] (listed as Ag^+) is reported as “Inhibition occurred; also recorded: Inhibited”. In assay [1], the Relative activity was 31.6%.
`Cl.NO` [NH2 OH·HCl]: in assay [3], the Relative activity is 106.6%.
For the molecule `[Cl][Pb][Cl]` [PbCl2], the Relative activity in assay [1] stood at 111.0%.
Consider `O=c1[nH]cnc2c1ncn2[C@@H]1O[C@H](COP(=O)(O)OP(=O)(O)O)[C@@H](O)[C@H]1O` [5'-IDP], for which the Relative activity entry in assay [2] is recorded as “-”.
With `O=C(O)c1cc[c]([Hg][Cl])cc1` [p-CMB], the Relative activity in assay [3] is on record as 80.2%.
As to `Nc1ncnc2c1ncn2[C@H]1C[C@H](O)[C@@H](CO)O1` [2'-deoxyadenosine], in assay [2], the Relative activity result is recorded as “++ (<31%)”.
Consider `NC(=O)c1ccc[n+]([C@@H]2O[C@H](COP(=O)([O-])OP(=O)(O)OC[C@H]3O[C@@H](n4cnc5c(=O)[nH]cnc54)[C@H](O)[C@@H]3O)[C@@H](O)[C@H]2O)c1` [deamino NAD], for which the Relative activity entry in assay [2] is listed as “-”.
As to `[Cl-].[Cl-].[Mg+2]` [MgCl2], the Relative activity in assay [1] turned out to be 91.6%.
As to `[Cl-].[Na+]` [NaCl], the Relative activity in assay [1] is 93.3%.
For `Nc1ccn([C@@H]2O[C@H](CO)[C@@H](O)[C@H]2O)c(=O)n1` [cytidine], the Relative activity entry in assay [2] was “-”.
`O=[Se](O)O` [sodium selenite]: in assay [3], the “Inhibition of purine nucleosidase (in words)” value is “Inhibition occurred; also recorded: inhibited”.
As to `O=C(O)CN(CCN(CC(=O)O)CC(=O)O)CC(=O)O` [EDTA-Na2], in assay [3], the Relative activity worked out at 54.4%.
As for `Cc1cn([C@H]2C[C@H](O)[C@@H](CO)O2)c(=O)[nH]c1=O` [thymidine], in assay [2], the Relative activity result is recorded as “-”.
As to `O=S(=O)([O-])[O-].[Fe+2]` [FeSO4], the Relative activity in assay [1] was 92.6%.
On to `Nc1ccn([C@@H]2O[C@H](COP(=O)(O)O)[C@@H](O)[C@H]2O)c(=O)n1` [5'-CMP], for which the Relative activity entry in assay [2] is given as “-”.
For 5'-bromouridine, the Relative activity result in assay [2] was “-”.
In the case of `O=c1ccn([C@@H]2O[C@H](CO)[C@@H](O)[C@H]2O)c(=O)[nH]1` [uridine], the Relative activity result in assay [2] is recorded as “-”.
Take `[Cl-].[Cl-].[Co+2]` [CoCl2]: the Relative activity in assay [1] is on record as 82.9%.
For `NC(=O)c1ccc[n+]([C@@H]2O[C@H](COP(=O)([O-])OP(=O)(O)OC[C@H]3O[C@@H](n4cnc5c(N)ncnc54)[C@H](OP(=O)(O)O)[C@@H]3O)[C@@H](O)[C@H]2O)c1` [β-NADP], the Relative activity entry in assay [2] was “-”.
For the molecule `Nc1ncnc2c1ncn2[C@@H]1O[C@H](CO)[C@@H](O)[C@H]1OP(=O)(O)O` [2'-AMP, 2'-adenosine monophosphate], in assay [2], the Relative activity entry is given as “++ (<31%)”.
As to `O=S(=O)([O-])[O-].[Be+2]` [BeSO4], the Relative activity in assay [1] came out at 88.9%.
Consider `Nc1nc2c(ncn2[C@@H]2O[C@H](COP(=O)(O)O)[C@@H](O)[C@H]2O)c(=O)[nH]1` [5'-GMP, 5'-guanosine monophosphate], for which the Relative activity result in assay [2] was “+ (<10%)”.
The same measure, in the same setting: to `O=c1[nH]c(=O)c2ncn([C@@H]3O[C@H](COP(=O)(O)O)[C@@H](O)[C@H]3O)c2[nH]1` [5'-XMP] belongs “+ (<10%)”.
Regarding `[Cl][Sn][Cl]` [SnCl2], in assay [1], the Relative activity stood at 113.2%.
Still for that read-out and setting: to `[Cl-].[Li+]` [LiCl] belongs 103.0%.
Regarding `O=C1CCC(=O)N1Br` [N-bromosuccimide], in assay [3], the Relative activity is on record as 113.7%.
Still for that read-out and setting: the same measure for `O=C(O)CI` [iodoacetic acid]: 99.4%.
Turning to `[Cl][Cd][Cl]` [CdCl2], the Relative activity in assay [1] turned out to be 124.9%.
As to `CCN1C(=O)C=CC1=O` [N-ethylmaleimide], in assay [3], the Relative activity is recorded as 107.9%.
In the case of `[Cl][Ni][Cl]` [NiCl2], in assay [1], the Relative activity stood at 91.3%.
On the same count and under the same terms, the same measure for `[Cl-].[Rb+]` [RbCl]: 106.5%.
Turning to `O=c1[nH]cnc2c1ncn2[C@@H]1O[C@H](CO)[C@@H](O)[C@H]1OP(=O)(O)O` [2'-IMP], the Relative activity entry in assay [2] is given as “-”.
Still for that read-out and setting: the same measure for `NC(=O)c1ccc[n+]([C@@H]2O[C@H](COP(=O)([O-])OP(=O)(O)OC[C@H]3O[C@@H](n4cnc5c(N)ncnc54)[C@H](O)[C@@H]3O)[C@@H](O)[C@H]2O)c1` [β-NAD, β-nicotinamide adenine dinucleotide]: “+ (<10%)”.
Consider `[Cl][Hg][Cl]` [HgCl2], for which the “Inhibition or activation” value in assay [1] (listed as Hg^2+) is “Inhibition occurred; also recorded: Inhibited”. Further, in assay [1], the Relative activity worked out at 39.4%.
`Nc1ncnc2c1ncn2[C@@H]1O[C@H](COP(=O)(O)O)[C@@H](O)[C@H]1O` [5'-AMP, 5'-adenosine monophosphate]: the Relative activity entry in assay [2] was “++ (<31%)”.
For `O=S(=O)([O-])[O-].[Cu+2]` [CuSO4], the “Inhibition or activation” value in assay [1] (listed as Cu^2+) is recorded as “Inhibition occurred; also recorded: Inhibited”. Further, in assay [1], the Relative activity is listed as 42.7%.
For `Nc1ccn([C@@H]2O[C@H](CO)[C@@H](O)[C@H]2OP(=O)(O)O)c(=O)n1` [2'-CMP], the Relative activity entry in assay [2] is given as “+ (<10%)”.
As to `[Ba+2].[Cl-].[Cl-]` [BaCl2], the Relative activity in assay [1] was found to be 86.1%.
With `Nc1ncnc2c1ncn2[C@@H]1O[C@H](CO)C[C@H]1O` [cordycepin], the Relative activity result in assay [2] is “++ (<31%)”.

(Values after patent US6066484A, “Purine nucleosidase” (Suntory Limited, priority 1996, dated 2000).)
